Measurements published in PMC5727165, “A switch in nucleotide affinity governs activation of the Src and Tec family kinases” (Scientific Reports, 2017).

Target: T1, Src^32K (Mus musculus, UniProt P05480)
T1 construct: mouse Src^85-535 (Src^32K); GST (cleaved yes); made in house; host or cells: baculovirus-infected Sf9 insect cells, co-expressed with human Csk
Experiment: Competition nucleotide displacement assay (Mant-ADP, fluorescence anisotropy)
Assay type: binding
Conditions: Src^32K (pY527); displacement of Mant-ADP
Description: Figure 1 Autoinhibited Itk and Src kinases preferentially bind ADP. (a) Schematic of constructs evaluated in this study. Itk^32K, Src^32K, and Src^32KΔC contain the conserved module of SH3, SH2, and kinase (^32K) domains. Src^32K was truncated by […] to remove its C-terminal tail (inclusive of the Y527 phosphorylation site), generating a construct we refer to as Src^32KΔC (ΔC-tail). (b) Competition nucleotide displacement assay for Itk^32K. 40 μM Itk^32K was incubated with 40 μM Mant-ADP until equilibrium was established. Unlabelled ADP or AMPPNP was titrated into the reaction and fluorescence anisotropy monitored. Comparison of the equilibrium inhibition constants (K i) gives an indication of the relative strength of nucleotide binding. […] (c) Competition nucleotide displacement assay for Src^32K. 40 μM tail-phosphorylated Src^32K (pY527) or doubly phosphorylated Src^32K pY416 (pY527) was incubated with 40 μM Mant-ADP until equilibrium was established. Unlabelled ADP or AMPPNP was titrated into the reaction and fluorescence anisotropy monitored. Solid lines correspond to Src^32K, dashed lines to Src^32K pY416. AMPPNP binds to Src^32K with 20-fold weaker affinity than ADP. […] (d) Omit map showing clear electron density for ADP and a single magnesium ion in the nucleotide-binding pocket of Src. The magnesium is coordinated by Asn391, Asp404, and the α- and β- phosphates of ADP. The β-phosphate is directly coordinated by the guanidinium side chain of Arg388. […]
Since the concentration of ATP in the cell is typically higher than ADP[33],[34], we performed nucleotide competition assays in order to determine which nucleotide is bound in vivo. We measured the concentrations of ADP or AMPPNP required to displace Mant-ADP. […]
The binding constants for ADP and AMPPNP were determined for Src and Itk proteins by fluorescence anisotropy, using 2′/3′-Mant-labelled nucleotides (Jena Bioscience). […] Unlabelled nucleotide was titrated into the reaction and fluorescence anisotropy monitored. The equilibrium inhibition constant for the unlabelled nucleotide was calculated from the fitted curve.

T1 sequence (P05480 85-535): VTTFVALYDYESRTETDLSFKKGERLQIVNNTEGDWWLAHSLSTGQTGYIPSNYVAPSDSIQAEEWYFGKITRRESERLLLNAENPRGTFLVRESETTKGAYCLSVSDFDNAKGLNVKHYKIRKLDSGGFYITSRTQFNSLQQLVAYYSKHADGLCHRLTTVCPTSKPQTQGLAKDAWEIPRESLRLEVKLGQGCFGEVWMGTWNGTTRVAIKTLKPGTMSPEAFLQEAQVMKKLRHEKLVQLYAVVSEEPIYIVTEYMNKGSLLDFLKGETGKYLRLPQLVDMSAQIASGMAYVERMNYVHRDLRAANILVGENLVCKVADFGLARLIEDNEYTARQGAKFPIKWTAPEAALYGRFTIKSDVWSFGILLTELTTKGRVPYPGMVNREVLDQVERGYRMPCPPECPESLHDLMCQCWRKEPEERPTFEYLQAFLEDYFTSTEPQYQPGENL

fold difference in Ki, ADP preferred over AMPPNP: 19 fold
SMILES: Nc1ncnc2c1ncn2[C@@H]1O[C@H](COP(=O)(O)OP(=O)(O)O)[C@@H](O)[C@H]1O [ADP]
